This is an account of results in patent US20250017964A1, “ENGINEERING OR INDUCING PDGF AND/OR PDGFR SIGNALING TO ENHANCE NK CELL THERAPY” (City of Hope, priority 2021, published 2025).

One assay has as its system NK cells. In words: NK cell effector functions and surface receptors, flow cytometry. It counts as cell-based, human. The note with it: IL-15-primed NK cells (10 ng/ml), PDGF ligand 50 ng/ml, 48 h. As for the experimental part:
FIGS. 3A-3K. […] (A-E) Primary NK cells were treated with IL-15 (10 ng/ml) in the presence of PDGF-B (50 ng/ml) or PDGF-D (50 ng/ml) for 48 h. Expression levels of IFN-γ, TNF-α, granzyme B, perforin, and CD107a were examined by flow cytometry (n=5). (F-K) Primary NK cells were treated with IL-15 (10 ng/ml) plus PDGF-D (50 ng/ml) in the presence of anti-NKp44 (10 βg/ml) or anti-PDGFRβ (10 μg/ml) for 48 h. Expression levels of IFN-γ, TNF-α, and CD107a were examined by flow cytometry (n=3). Data represent three independent experiments. Data shown are means±SD. NS, not significant. *P<0.05, **P<0.01, and ***P<0.001.
FIGS. 10A-10K. […] (A-E) Representative histograms and summary data of IFN-γ, TNF-α, granzyme B, perforin, and CD107a in PDGFRβ^+ and PDGFRβ^− NK cells. Cells were gated on CD56^+PDGFRβ^+ or CD56^+PDGFRβ^− cells. (F) PDGFRβ^+ and PDGFRβ^− NK cells were sorted by flow cytometry and co-cultured with ^51 Cr-labeled K562 cells in a 96-well V-bottom plate at ratios of 5:1, 2.5:1, or 1.25:1 for 4 h at 37° C. in a 5% CO2 incubator. The supernatant was harvested and analyzed using a microbeta scintillation counter (n=3). […]
Cells were stained with the indicated cell-surface markers and/or fixed/permeabilized using a Fixation/Permeabilization Kit (eBioscience). […] Data were analyzed using NovoExpress software (Agilent Technologies).

Assay [1] has as its system PDGFRβ expression in human NK cells. In words: Cytokine-induced PDGFRβ expression in purified human NK cells, flow cytometry. Format: cell-based. The note with it: 24 h. The text has this: Data shown are the percentages of PDGFRβ^+ NK cells among total NK cells (n=5). […] Bar=20 μm. […] Data represent three independent experiments. Data shown are means SD.
FIGS. 7A-7F. […] Data shown are representative histograms and mean fluorescence intensity (MFI) of PDGFRα. […] Expression levels of PDGFRβ were examined by flow cytometry (n=6). […] Data shown are the percentages of PDGFRβ^+ NK cells among total NK cells (n=5). […] Data shown are representative histograms with MFI of PDGFRβ expression. (F) Expression levels of PDGFRβ on NK cells from IL-15 transgenic (Tg) mice were determined by flow cytometry. Data shown are representative histograms. Data represent three independent experiments.
NK cells were cultured in RPMI 1640 with 10% heat-inactivated FBS (Gibco) at 37° C. in a 5% CO2 humidified incubator. For NK cell transduction, PDGFRB cDNA ORF clone (Cat: HG10514-G) was purchased from Sino Biological and cloned into pCDH-CMV-MCS-EF1-copGFP lentivirus vector (System Biosciences). To produce lentivirus, we transfected the lentiviral transfer vector DNA, together with psPAX2 packaging (Addgene) and pMD2.G envelope plasmid DNA (Addgene), into HEK293T cells; using a polyethyenimine (PEI) transfection protocol (Polysciences). Concentrated lentivirus was added to primary NK cells cultured in RPMI 1640 medium supplemented with 10% FCS and 10 jig/mL polybrene with 2,000×g centrifugation for 2 h. Cells were cultured for an additional 48 h. […] The cells were then collected for flow cytometry analysis. For the inhibition assay, NK cells were pretreated with the indicated inhibitors for 1 h, washed twice with RPMI 1640. and then treated with IL-15 for 24 h.
Cells were stained with the indicated cell-surface markers and/or fixed/permeabilized using a Fixation/Permeabilization Kit (eBioscience). For intracellular staining of IFN-γ and PDGF-D, 5 μg/ml Brefeldin A (BioLegend) was added for 4 h before cell harvest. Intracellular staining of Ki67 was performed by fixing and permeabilizing with the Foxp3/Transcription Factor Staining Kit (eBioscience).
In general terms: In flow cytometry, cells or beads pass a laser one at a time.

Take “PDGF-D: recombinant human PDGF-DD (1159-SB-025), R&D Systems”: in the assay on NK cells, the “expression of IFN-γ, TNF-α, perforin, and CD107a” value is given as “induced”; the “expression of granzyme B” value is “not granzyme B”.

Take “IL-15: recombinant human IL-15 (200-15); recombinant murine IL-15 in the mouse NK cell test”: in assay [1] (cytokine 10 ng/ml, IL-15 effect dose- and time-dependent), the PDGFRβ expression entry is given as “induced robust expression of PDGFRβ”. For the same substance, the “PDGFRβ expression in CD56^bright NK cells” value in assay [1] (sorted CD56^bright NK cells, IL-15 10 ng/ml) was “not CD56^bright NK cells”. In addition, in assay [1] (sorted CD56^dim NK cells, IL-15 10 ng/ml), the “PDGFRβ expression in CD56^dim NK cells” value is recorded as “induced PDGFRβ expression only in CD56^dim NK cells”.
